Laboratory results taken from patent US20100267561A1, “HERBICIDAL PYRIDAZINONE DERIVATIVES” (priority 2007, published 2010).

Tested on: velvetleaf (Abutilon theophrasti)
Experiment: Test A pre-/postemergence plant response
Assay type: in vivo
Conditions: Postemergence, 125 g ai/ha; 0 to 100 scale, 0 no effect, 100 complete control
Procedure, shortened: (§1)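 Both pre- and postemergence treatment given concurrently; postemergence seedlings measured 2–10 cm at the one- to two-leaf stage. Visual injury, 0–100 scale versus untreated, at ~10 days.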

Compound | Plant response rating, Velvetleaf
Cc1cc(-c2ccc(Br)cc2)nn1-c1c(OC(=O)C2CC2)cnn(C)c1=O [Compound 5] | 20
CCc1cc(-c2ccc(C(F)(F)F)cc2)nn1-c1c(OC(=O)OC(C)C)cnn(C)c1=O [Compound 12] | 0
5-[3-(4-chlorophenyl)-5-methyl-1H-pyrazol-1-yl]-1,6-dihydro-1-methyl-6-oxo-4-pyridazinyl-1-methylethyl carbonate [Compound 7] | 20
Cc1cc(-c2ccc(C(F)(F)F)cc2)nn1-c1c(O)c(C(C)C)nn(C)c1=O [Compound 27] | 0
CCc1cc(-c2ccc(C(F)(F)F)cc2)nn1-c1c(O)c(C)nn(C)c1=O [Compound 16] | 0

Same assay, conditions: Postemergence, 500 g ai/ha; 0 to 100 scale, 0 no effect, 100 complete control

Compound | Plant response rating, Velvetleaf
Cc1cc(-c2ccc(Br)cc2)nn1-c1c(OC(=O)C2CC2)cnn(C)c1=O [Compound 5] | 50
CCc1cc(-c2ccc(C(F)(F)F)cc2)nn1-c1c(OC(=O)OC(C)C)cnn(C)c1=O [Compound 12] | 0
5-[3-(4-chlorophenyl)-5-methyl-1H-pyrazol-1-yl]-1,6-dihydro-1-methyl-6-oxo-4-pyridazinyl-1-methylethyl carbonate [Compound 7] | 40
Cc1cc(-c2ccc(C(F)(F)F)cc2)nn1-c1c(O)c(C(C)C)nn(C)c1=O [Compound 27] | 0
CCc1cc(-c2ccc(C(F)(F)F)cc2)nn1-c1c(O)c(C)nn(C)c1=O [Compound 16] | 0

Same assay, conditions: Preemergence, 125 g ai/ha; 0 to 100 scale (0 no effect, 100 complete control)

Compound | Plant response rating, Velvetleaf
Cc1cc(-c2ccc(Br)cc2)nn1-c1c(OC(=O)C2CC2)cnn(C)c1=O [Compound 5] | 0
CCc1cc(-c2ccc(C(F)(F)F)cc2)nn1-c1c(OC(=O)OC(C)C)cnn(C)c1=O [Compound 12] | 0
5-[3-(4-chlorophenyl)-5-methyl-1H-pyrazol-1-yl]-1,6-dihydro-1-methyl-6-oxo-4-pyridazinyl-1-methylethyl carbonate [Compound 7] | 0
Cc1cc(-c2ccc(C(F)(F)F)cc2)nn1-c1c(O)c(C(C)C)nn(C)c1=O [Compound 27] | 0
CCc1cc(-c2ccc(C(F)(F)F)cc2)nn1-c1c(O)c(C)nn(C)c1=O [Compound 16] | 0

Same assay, conditions: Preemergence, 500 g ai/ha; 0 to 100 scale (0 no effect, 100 complete control)

Compound | Plant response rating, Velvetleaf
Cc1cc(-c2ccc(Br)cc2)nn1-c1c(OC(=O)C2CC2)cnn(C)c1=O [Compound 5] | 20
CCc1cc(-c2ccc(C(F)(F)F)cc2)nn1-c1c(OC(=O)OC(C)C)cnn(C)c1=O [Compound 12] | 0
5-[3-(4-chlorophenyl)-5-methyl-1H-pyrazol-1-yl]-1,6-dihydro-1-methyl-6-oxo-4-pyridazinyl-1-methylethyl carbonate [Compound 7] | 30
Cc1cc(-c2ccc(C(F)(F)F)cc2)nn1-c1c(O)c(C(C)C)nn(C)c1=O [Compound 27] | 0
CCc1cc(-c2ccc(C(F)(F)F)cc2)nn1-c1c(O)c(C)nn(C)c1=O [Compound 16] | 0

Tested on: wheat (Triticum aestivum)
Experiment: Test A pre-/postemergence plant response
Assay type: in vivo
Conditions: Postemergence, 125 g ai/ha; 0 to 100 scale, 0 no effect, 100 complete control
Procedure, shortened: as §1

Compound | Plant response rating, Wheat
Cc1cc(-c2ccc(Br)cc2)nn1-c1c(OC(=O)C2CC2)cnn(C)c1=O [Compound 5] | 60
CCc1cc(-c2ccc(C(F)(F)F)cc2)nn1-c1c(OC(=O)OC(C)C)cnn(C)c1=O [Compound 12] | 70
5-[3-(4-chlorophenyl)-5-methyl-1H-pyrazol-1-yl]-1,6-dihydro-1-methyl-6-oxo-4-pyridazinyl-1-methylethyl carbonate [Compound 7] | 40
Cc1cc(-c2ccc(C(F)(F)F)cc2)nn1-c1c(O)c(C(C)C)nn(C)c1=O [Compound 27] | 50
CCc1cc(-c2ccc(C(F)(F)F)cc2)nn1-c1c(O)c(C)nn(C)c1=O [Compound 16] | 70

Same assay, conditions: Postemergence, 500 g ai/ha; 0 to 100 scale, 0 no effect, 100 complete control

Compound | Plant response rating, Wheat
Cc1cc(-c2ccc(Br)cc2)nn1-c1c(OC(=O)C2CC2)cnn(C)c1=O [Compound 5] | 70
CCc1cc(-c2ccc(C(F)(F)F)cc2)nn1-c1c(OC(=O)OC(C)C)cnn(C)c1=O [Compound 12] | 90
5-[3-(4-chlorophenyl)-5-methyl-1H-pyrazol-1-yl]-1,6-dihydro-1-methyl-6-oxo-4-pyridazinyl-1-methylethyl carbonate [Compound 7] | 60
Cc1cc(-c2ccc(C(F)(F)F)cc2)nn1-c1c(O)c(C(C)C)nn(C)c1=O [Compound 27] | 90
CCc1cc(-c2ccc(C(F)(F)F)cc2)nn1-c1c(O)c(C)nn(C)c1=O [Compound 16] | 90

Same assay, conditions: Preemergence, 125 g ai/ha; 0 to 100 scale (0 no effect, 100 complete control)

Compound | Plant response rating, Wheat
Cc1cc(-c2ccc(Br)cc2)nn1-c1c(OC(=O)C2CC2)cnn(C)c1=O [Compound 5] | 90
CCc1cc(-c2ccc(C(F)(F)F)cc2)nn1-c1c(OC(=O)OC(C)C)cnn(C)c1=O [Compound 12] | 90
5-[3-(4-chlorophenyl)-5-methyl-1H-pyrazol-1-yl]-1,6-dihydro-1-methyl-6-oxo-4-pyridazinyl-1-methylethyl carbonate [Compound 7] | 60
Cc1cc(-c2ccc(C(F)(F)F)cc2)nn1-c1c(O)c(C(C)C)nn(C)c1=O [Compound 27] | 40
CCc1cc(-c2ccc(C(F)(F)F)cc2)nn1-c1c(O)c(C)nn(C)c1=O [Compound 16] | 70

Same assay, conditions: Preemergence, 500 g ai/ha; 0 to 100 scale (0 no effect, 100 complete control)

Compound | Plant response rating, Wheat
Cc1cc(-c2ccc(Br)cc2)nn1-c1c(OC(=O)C2CC2)cnn(C)c1=O [Compound 5] | 100
CCc1cc(-c2ccc(C(F)(F)F)cc2)nn1-c1c(OC(=O)OC(C)C)cnn(C)c1=O [Compound 12] | 100
5-[3-(4-chlorophenyl)-5-methyl-1H-pyrazol-1-yl]-1,6-dihydro-1-methyl-6-oxo-4-pyridazinyl-1-methylethyl carbonate [Compound 7] | 80
Cc1cc(-c2ccc(C(F)(F)F)cc2)nn1-c1c(O)c(C(C)C)nn(C)c1=O [Compound 27] | 100
CCc1cc(-c2ccc(C(F)(F)F)cc2)nn1-c1c(O)c(C)nn(C)c1=O [Compound 16] | 100

Tested on: giant foxtail (Setaria faberi)
Experiment: Test A pre-/postemergence plant response
Assay type: in vivo
Conditions: Postemergence, 125 g ai/ha; 0 to 100 scale, 0 no effect, 100 complete control
Procedure, shortened: as §1

Compound | Plant response rating, Foxtail, Giant
Cc1cc(-c2ccc(Br)cc2)nn1-c1c(OC(=O)C2CC2)cnn(C)c1=O [Compound 5] | 100
CCc1cc(-c2ccc(C(F)(F)F)cc2)nn1-c1c(OC(=O)OC(C)C)cnn(C)c1=O [Compound 12] | 80
5-[3-(4-chlorophenyl)-5-methyl-1H-pyrazol-1-yl]-1,6-dihydro-1-methyl-6-oxo-4-pyridazinyl-1-methylethyl carbonate [Compound 7] | 90
Cc1cc(-c2ccc(C(F)(F)F)cc2)nn1-c1c(O)c(C(C)C)nn(C)c1=O [Compound 27] | 50
CCc1cc(-c2ccc(C(F)(F)F)cc2)nn1-c1c(O)c(C)nn(C)c1=O [Compound 16] | 100

Same assay, conditions: Postemergence, 500 g ai/ha; 0 to 100 scale, 0 no effect, 100 complete control

Compound | Plant response rating, Foxtail, Giant
Cc1cc(-c2ccc(Br)cc2)nn1-c1c(OC(=O)C2CC2)cnn(C)c1=O [Compound 5] | 100
CCc1cc(-c2ccc(C(F)(F)F)cc2)nn1-c1c(OC(=O)OC(C)C)cnn(C)c1=O [Compound 12] | 100
5-[3-(4-chlorophenyl)-5-methyl-1H-pyrazol-1-yl]-1,6-dihydro-1-methyl-6-oxo-4-pyridazinyl-1-methylethyl carbonate [Compound 7] | 90
Cc1cc(-c2ccc(C(F)(F)F)cc2)nn1-c1c(O)c(C(C)C)nn(C)c1=O [Compound 27] | 90
CCc1cc(-c2ccc(C(F)(F)F)cc2)nn1-c1c(O)c(C)nn(C)c1=O [Compound 16] | 100

Same assay, conditions: Preemergence, 125 g ai/ha; 0 to 100 scale (0 no effect, 100 complete control)

Compound | Plant response rating, Foxtail, Giant
Cc1cc(-c2ccc(Br)cc2)nn1-c1c(OC(=O)C2CC2)cnn(C)c1=O [Compound 5] | 100
CCc1cc(-c2ccc(C(F)(F)F)cc2)nn1-c1c(OC(=O)OC(C)C)cnn(C)c1=O [Compound 12] | 100
5-[3-(4-chlorophenyl)-5-methyl-1H-pyrazol-1-yl]-1,6-dihydro-1-methyl-6-oxo-4-pyridazinyl-1-methylethyl carbonate [Compound 7] | 100
Cc1cc(-c2ccc(C(F)(F)F)cc2)nn1-c1c(O)c(C(C)C)nn(C)c1=O [Compound 27] | 80
CCc1cc(-c2ccc(C(F)(F)F)cc2)nn1-c1c(O)c(C)nn(C)c1=O [Compound 16] | 100

Same assay, conditions: Preemergence, 500 g ai/ha; 0 to 100 scale (0 no effect, 100 complete control)

Compound | Plant response rating, Foxtail, Giant
Cc1cc(-c2ccc(Br)cc2)nn1-c1c(OC(=O)C2CC2)cnn(C)c1=O [Compound 5] | 100
CCc1cc(-c2ccc(C(F)(F)F)cc2)nn1-c1c(OC(=O)OC(C)C)cnn(C)c1=O [Compound 12] | 100
5-[3-(4-chlorophenyl)-5-methyl-1H-pyrazol-1-yl]-1,6-dihydro-1-methyl-6-oxo-4-pyridazinyl-1-methylethyl carbonate [Compound 7] | 100
Cc1cc(-c2ccc(C(F)(F)F)cc2)nn1-c1c(O)c(C(C)C)nn(C)c1=O [Compound 27] | 90
CCc1cc(-c2ccc(C(F)(F)F)cc2)nn1-c1c(O)c(C)nn(C)c1=O [Compound 16] | 100
